Laboratory results from US20230151024A1, “STING AGONISTIC COMPOUND” (ONO PHARMACEUTICAL CO., LTD., priority 2020, published 2023).

What was measured:
[1] = Conversion of a prodrug to an active body thereof in human plasma; assay type: in vitro ADME; conditions: 1 μmol/L, 37° C. for 60 minutes, conversion to the compound in Example 3
Protocol: (§1) The solutions of the example compounds in Table 5 below (50 μmol/L, 50% acetonitrile with 5% DMSO) were added to plasma (245 μL), respectively, such that the final concentrations thereof become 1 μmol/L. After keeping them at 37° C. for 60 minutes, 40 μL of the reaction solutions were taken therefrom, and added to 200 μL of acetonitrile/ethanol (7:3) containing Candesartan (internal standard).
(§2) The concentration of the compound prepared in Example 3 in the plasma resulting from the above reaction was analyzed by LC-MS/MS according to the following method.
(§3) Prominence UFLCXR (Shimadzu Corporation), API5000 (AB Sciex)
(§4) The whole amount was transferred to a filter plate for protein removal and filtered by suction, and the filtrate thereof was diluted 2-fold with water. [LC column] Shim-pack XR-ODSII 2.0 mm ID x 75 mm (Shimadzu Corporation)
(§5) Column temperature: 40° C. Mobile phase: A: 0.2% formic acid in 5 mM ammonium acetate solution; and
(§6) Electrospray, positive mode, multiple reaction monitoring;
(§7) Compound prepared in Example 3: m/z353.0→m/z311.2, DP: 80, CE: 35; and Candesartan (internal standard): m/z309.1→m/z163.0, DP: 71, CE: 21.
(§8) A regression formula was calculated from the peak area ratio of the real sample and the standard sample for the calibration curve in the same matrix (peak area of the compound in Example 3/peak area of Candesartan), and the peak area ratio of the real sample was substituted into the regression formula to calculate the quantitative value. 60 minutes later, the concentration of the compound in Example 3 in the sample was compared, and the conversion rate (%) thereof was calculated using the following formula:
(§9) Conversion rate (%)=Concentration of the compound in Example 3 in the sample after 60 minutes (μmol/L)×100

[2] = Conversion of a prodrug to an active body thereof in mouse plasma; assay type: in vitro ADME; conditions: 1 μmol/L, 37° C. for 60 minutes, conversion to the compound in Example 3
Protocol: as §1, §2, §3, §4, §5, §6, §7, §8, §9

| Compound | Plasma conversion rate Human [1] | Plasma conversion rate Mouse [2] |
| --- | --- | --- |
| CC(=O)c1cc(-c2ncc(-c3cnn(COC(=O)N4CCC(N5CCCCC5)CC4)c3)c3onc(N)c23)c(F)cc1N [Example 12, (4-(4-(5-acetyl-4-amino-2-fluorophenyl)-3-aminoisoxazolo[4,5-c]pyridin-7-yl)-1H-pyrazol-1-yl)methyl [1,4′-bipiperidine]-1′-carboxylate] | + (the conversion rate of each example compound in the table to the compound in Example 3 is less than 25%) | + (the conversion rate of each example compound in the table to the compound in Example 3 is less than 25%) |
| CC(=O)c1cc(-c2ncc(-c3cnn(COC(=O)OC[C@H]4OC(O)[C@H](N)[C@@H](O)[C@@H]4O)c3)c3onc(N)c23)c(F)cc1N.Cl (stereo partly drawn) [Example 12(6), (4-(4-(5-acetyl-4-amino-2-fluorophenyl)-3-aminoisoxazolo[4,5-c]pyridin-7-yl)-1H-pyrazol-1-yl)methyl (((2R,3S,4R,5R)-5-amino-3,4,6-trihydroxytetrahydro-2H-pyran-2-yl)methyl) carbonate hydrochloride] | + + + | + + + |
| CC(=O)c1cc(-c2ncc(-c3cnn(COC(=O)OC[C@H]4OC(O)[C@H](O)[C@@H](O)[C@@H]4O)c3)c3onc(N)c23)c(F)cc1N (stereo partly drawn) [Example 12(5), (4-(4-(5-acetyl-4-amino-2-fluorophenyl)-3-aminoisoxazolo[4,5-c]pyridin-7-yl)-1H-pyrazol-1-yl)methyl (((2R,3S,4S,5R)-3,4,5,6-tetrahydroxytetrahydro-2H-pyran-2-yl)methyl) carbonate] | + + + | + + + |
| CC(=O)c1cc(-c2ncc(-c3cnn(C(=O)NCC(=O)O)c3)c3onc(N)c23)c(F)cc1N [Example 12(9), (4-(4-(5-acetyl-4-amino-2-fluorophenyl)-3-aminoisoxazolo[4,5-c]pyridin-7-yl)-1H-pyrazole-1-carbonyl)glycine] | + (the conversion rate of each example compound in the table to the compound in Example 3 is less than 25%) | + (the conversion rate of each example compound in the table to the compound in Example 3 is less than 25%) |
| CC(=O)c1cc(-c2ncc(-c3cnn(COP(=O)(O)OCOC(=O)OC(C)C)c3)c3onc(N)c23)c(F)cc1N [Example 12(11), ((((4-(4-(5-acetyl-4-amino-2-fluorophenyl)-3-aminoisoxazolo[4,5-c]pyridin-7-yl)-1H-pyrazol-1-yl)methoxy)(hydroxy)phosphoryl)oxy)methyl isopropyl carbonate] | + (the conversion rate of each example compound in the table to the compound in Example 3 is less than 25%) | + (the conversion rate of each example compound in the table to the compound in Example 3 is less than 25%) |
| CC(=O)c1cc(-c2ncc(-c3cnn(COC(=O)N(C)c4ncccc4COP(=O)(O)O)c3)c3onc(N)c23)c(F)cc1N [Example 12(1), (4-(5-(5-acetyl-4-amino-2-fluorophenyl)-3-aminoisoxazolo[4,5-c]pyridin-7-yl)-1H-pyrazol-1-yl)methyl methyl(3-((phosphonooxy)methyl)pyridin-2-yl)carbamate] | + + | + (the conversion rate of each example compound in the table to the compound in Example 3 is less than 25%) |
| CC(=O)c1cc(-c2ncc(-c3cnn(COC(=O)OCCN4CCOCC4)c3)c3onc(N)c23)c(F)cc1N.Cl [Example 12(4), (4-(4-(5-acetyl-4-amino-2-fluorophenyl)-3-aminoisoxazolo[4,5-c]pyridin-7-yl)-1H-pyrazol-1-yl)methyl (2-morpholinoethyl)carbonate hydrochloride] | + + + | + + + |

Results, then the compound that gave them:

| Plasma conversion rate Human [1] | Plasma conversion rate Mouse [2] | Compound |
| --- | --- | --- |
| + + + | + + + | CC(=O)c1cc(-c2ncc(-c3cnn(COP(=O)(O)O)c3)c3onc(N)c23)c(F)cc1N [Example 10(1), (4-(4-(5-acetyl-4-amino-2-fluorophenyl)-3-aminoisoxazolo[4,5-c]pyridin-7-yl)-1H-pyrazol-1-yl)methyl dihydrogen phosphate] |
| + + + | + + + | CNCC(=O)OCc1cccnc1N(C)C(=O)OC(C)n1cc(-c2cnc(-c3cc(C(C)=O)c(N)cc3F)c3c(N)noc23)cn1 (stereo not shown) [Example 12(2), (2-(((1-(4-(4-(5-acetyl-4-amino-2-fluorophenyl)-3-aminoisoxazolo[4,5-c]pyridin-7-yl)-1H-pyrazol-1-yl)ethoxy)carbonyl)(methyl)amino)pyridin-3-yl)methyl methylglycinate] |
| + + + | + + + | COC(=O)n1cc(-c2cnc(-c3cc(C(C)=O)c(N)cc3F)c3c(N)noc23)cn1 [Example 12(10), methyl 4-(4-(5-acetyl-4-amino-2-fluorophenyl)-3-aminoisoxazolo[4,5-c]pyridin-7-yl)-1H-pyrazole-1-carboxylate] |
| + + + | + + + | CNCC(=O)OCc1cccnc1N(C)C(=O)OCn1cc(-c2cnc(-c3cc(C(C)=O)c(N)cc3F)c3c(N)noc23)cn1.Cl [Example 12(3), 2-((2-((((4-(4-(5-acetyl-4-amino-2-fluorophenyl)-3-aminoisoxazolo[4,5-c]pyridin-7-yl)-1H-pyrazol-1-yl)methoxy)carbonyl)(methyl)amino)pyridin-3-yl)methoxy)-N-methyl-2-oxoethane-1-ammonium chloride] |
